The test system of one experiment is human normal melanocytes. Kind of experiment: Melanin formation inhibition test (14C-thiouracil uptake). The conditions noted are these: for Melanin level (%): three days culture, % of control. The format is cell-based. The method, then: The melanin formation inhibitory action of Compound (1) was evaluated using thiouracil (in this test, thiouracil labeled with ^14C was used), which is specifically taken into cells in a melanin synthesis process. A complete medium for culturing melanocytes (from Kurabo Industries Ltd.) was added to 15 wells of a 24-well plate in an amount of 2 ml per well, and human normal melanocytes (from Kurabo Industries Ltd.) were inoculated into each well at a concentration of 1.5×10^4 cells/cm^2. The cells were cultured at 37° C. for 24 hours under 5% carbon dioxide atmosphere. Thereafter, in all the wells, the medium was exchanged under the following conditions. That is, a fresh complete medium for culturing melanocytes was added to three wells (control), complete mediums for culturing melanocytes containing Compound (1) at concentrations of 1.0×10^−3 mM, 2.0×10^−3 mM, and 4.0×10^−3 mM were added to three wells each (total: nine wells), and a complete medium for culturing melanocytes containing 0.1 mM phenylthiourea, which is known as a tyrosinase inhibitor, was added to other three wells. In addition, to those 15 wells was added ^14C-thiouracil (thiouracil labeled with ^14C) was added at 0.25×10^−6 Ci (curie). The cells were cultured under the same conditions as above for further three days. After completion of the culture, the culture solution was removed from the wells, and the cells were washed with PBS (phosphate buffered saline) and detached with a medium containing trypsin and EDTA from the bottom of each well to produce cell suspensions, followed by centrifugation to collect the cells. The numbers of the cells were counted using a blood cell counting chamber. Thereafter, the ^14C-thiouracil level in the cells collected from each well was determined using a liquid scintillation counter. The percentage of a radiation dose of the cells cultured in each medium containing a test substance based on a radiation dose of the cells collected from the control wells was calculated to determine a melanin level (%). That is, it is considered that the smaller the radiation dose taken in the cells is, the smaller the melanin level is, resulting in a large melanin inhibition titer.

Experiment [1] has as its target T1, tyrosinase extracted from normal human melanocytes (Homo sapiens, UniProt P14679).
T1 construct: to thereby produce a protein solution, which was used as a crude tyrosinase protein solution; host or cells: human normal melanocytes; extract made with a Subcellular Proteome Extraction Kit (Calbiochem)
T1 sequence (P14679 19-529): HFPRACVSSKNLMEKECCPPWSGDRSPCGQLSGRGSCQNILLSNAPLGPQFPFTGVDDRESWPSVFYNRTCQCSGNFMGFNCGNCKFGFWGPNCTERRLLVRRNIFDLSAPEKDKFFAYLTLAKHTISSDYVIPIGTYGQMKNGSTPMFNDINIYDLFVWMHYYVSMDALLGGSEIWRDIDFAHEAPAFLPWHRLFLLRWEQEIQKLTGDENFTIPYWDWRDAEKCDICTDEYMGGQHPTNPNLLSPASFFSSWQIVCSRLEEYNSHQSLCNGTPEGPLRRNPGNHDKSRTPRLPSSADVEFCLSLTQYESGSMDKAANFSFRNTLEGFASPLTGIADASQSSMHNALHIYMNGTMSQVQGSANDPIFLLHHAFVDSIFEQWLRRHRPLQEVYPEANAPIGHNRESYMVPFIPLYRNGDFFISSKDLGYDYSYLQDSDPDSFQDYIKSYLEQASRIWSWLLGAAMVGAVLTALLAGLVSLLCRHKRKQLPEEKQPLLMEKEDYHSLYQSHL
Kind of experiment: Normal human melanocytes tyrosinase activity inhibition test (dopa-oxidizing activity). The experiment is classed as biochemical. As to conditions: for Dopa-oxidizing activity: control defined as 100%, 10 minutes at 37° C.; for action on the activity of tyrosinase: 1 to 100 μM. Here is the method: Human normal melanocytes (from Kurabo Industries Ltd.), cultured in a medium for culturing melanocytes (Medium 254, from Kurabo Industries Ltd.), were collected using a cell scraper, and extraction was performed for the cells using PreteoExtract™ Subcellular Proteome Extraction Kit (Calbiochem), to thereby produce a protein solution, which was used as a crude tyrosinase protein solution. The dopa-oxidizing activity of the tyrosinase protein solution was measured to evaluate the tyrosinase activity-inhibiting action of Compound (1).
A 0.1% dopa solution, serving as a substrate, was prepared by dissolving L-β-(3,4-dihydroxyphenyl)alanine (L-DOPA) in 10 mM sodium phosphate buffer (pH 6.8) at a concentration of 0.1 (w/v) %. A crude tyrosinase protein solution, prepared to 1 to 5 μg/80 μL, was fed into a 96-well plate in an amount of 80 μL per well, and solutions of 10 μM, 100 μM, and 1,000 μM Compound (1) in DMSO were separately added to three wells each in an amount of 20 μL per well. Meanwhile, as positive controls, solutions of 10 μM, 100 μM, and 1,000 μM phenylthiourea, known as a tyrosinase activity inhibitor, in DMSO were separately added in the same way as above to different three wells each in an amount of 20 μL per well. In addition, as a control, DMSO was added to another different three wells each in an amount of 20 μL per well. Immediately after 100 μL each of the 0.1% dopa solution was added to the wells each containing the above-described test solution, absorbances at 450 nm were measured using a plate reader and were defined as 0-minute values. The 96-well plate was incubated at 37° C. for 10 minutes in the plate reader, and the absorbances at 450 nm were measured again and defined as 10-minute values. A value calculated by subtracting the 0-minute value from the 10-minute value of each well was defined as a 0→10 minute absorbance change value, and the average of 0→10 minute absorbance change value of control was defined as 100%, followed by measurement of dopa-oxidizing activities in the cases of treatments with various concentrations of test substances.

The test system of the next experiment is tyrosinase. Kind of experiment: Expression of tyrosinase by Western blotting. The experiment is classed as cell-based. The conditions noted are these: 5 μM, 72-hour culture, human normal melanocytes. Here is the method:
(§1) A cell suspension of human normal melanocytes (from Kurabo Industries Ltd.) in a medium for culturing melanocytes (Medium 254, from Kurabo Industries Ltd.) was prepared at 7×10^4 cells/mL and inoculated into φ10-cm culture petri dishes in an amount of 10 mL per dish, and the cells were cultured in a CO2 incubator (37° C., 5% CO2). The next day, the medium was removed, and a medium for culturing melanocytes containing 2 μM or 5 μM Compound (1) or a medium for culturing melanocytes (control) was added in an amount of 10 mL per dish, followed by culture in a CO2 incubator for 72 hours. After 72-hour culture, the medium was removed, and the cells were washed with phosphate buffered saline (PBS) and collected using a cell scraper. A protein extraction solution (0.1% NP-40, 0.01% SDS, 10 mM sodium phosphate buffer (pH 6.8), protease inhibitor) was added to the cell pellets to suspend the cells, and the suspension was shaken at 4° C. for 1 hour. The resultant was centrifuged at 4° C. and 15,000 rpm for 10 minutes, and the supernatant was collected and used as a crude protein extract. […]
(§2) The membrane was washed with TPBS, and proteins were detected using an ECL Plus western blotting detection system. […]
For orientation: In western blotting, separated proteins are transferred to a membrane and probed.

The test system of a further experiment is Trp-1. Kind of experiment: Expression of Trp-1 by Western blotting. The experiment is classed as cell-based. The conditions noted are these: 5 μM, 72-hour culture, human normal melanocytes. Here is the method:
as §1, §2

The next experiment has as its system Trp-2. Kind of experiment: Expression of Trp-2 by Western blotting. As to conditions: 5 μM, 72-hour culture, human normal melanocytes. The format is cell-based. The method, then: as §1, §2

The structures appear in SMILES notation.

We go through 2 compounds from patent US20090054515A1, “SKIN-WHITENING COSMETIC” (POLA CHEMICAL INDUSTRIES INC., priority 2006, published 2009).

In the case of `NC(=S)Nc1ccccc1` [Phenylthiourea, phenylthiourea, reference compound], the “Melanin level (%)” value in the experiment on human normal melanocytes (0.1 mM in medium) is on record as 20.3 ± 3.8%. The figures for the Dopa-oxidizing activity in experiment [1] (1 μM added substance), in experiment [1] (10 μM added substance) and in experiment [1] (100 μM added substance) were 64.07 ± 1.53%, 22.52 ± 1.09% and 4.73 ± 2.07%, respectively. The “action on the activity of tyrosinase” value in experiment [1] is given as “had an action of inhibiting the activity of tyrosinase”.
Consider `CC(C)(C)c1cc(C(=O)c2cccs2)cc(C(C)(C)C)c1O` [Compound (1), 2,6-di-tert-butyl-4-(2′-thenoyl)phenol], for which, in the experiment on human normal melanocytes (1.0-4.0 × 10^−3 mM), the “melanin formation inhibitory action” value is “concentration-dependent melanin formation inhibitory action”. Moreover, the “Melanin level (%)” value is 48.5 ± 2.3% in the experiment on human normal melanocytes (1.0 × 10^−3 mM in medium), 27.9 ± 0.8% in the experiment on human normal melanocytes (2.0 × 10^−3 mM in medium) and 17.0 ± 0.8% with human normal melanocytes (4.0 × 10^−3 mM in medium). In the experiment with human normal melanocytes (Compound (1) 4.0×10^−3 mM versus phenylthiourea 0.1 mM), the “melanin formation inhibition titer relative to phenylthiourea (positive control)” value is no less than 20 times. Also, the “inhibition of melanin formation” value with human normal melanocytes (cultured cell system of Test Example 1, concentration 25-fold lower than 100 μM) was no less than 80%. The Dopa-oxidizing activity in experiment [1] (1 μM added substance) came out at 103.55 ± 1.34%; in experiment [1] (10 μM added substance), 102.52 ± 3.68%; in experiment [1] (100 μM added substance) it was 102.52 ± 2.19%. In addition, the “action on the activity of tyrosinase” value in experiment [1] was “did not inhibit the activity of tyrosinase”. Also, in the experiment with tyrosinase, the “expression level of tyrosinase” value is reported as “did not affect”. Besides, the “expression level of Trp-1” value in the experiment with Trp-1 was “did not affect”. Further, the “expression level of Trp-2” value in the experiment with Trp-2 is given as “did not affect”.
